In patent US10570167B2 (Calithera Biosciences, Inc., priority 2016, dated 2020):
pIC50: −log10 of the molar value.

Molecular target: recombinant CD73 (Homo sapiens (Human), UniProt P21589)
Assay: Inhibition of soluble recombinant CD73 enzyme activity in vitro (AMP hydrolysis, Malachite Green phosphate detection)
Type: biochemical
Conditions: recombinant CD73 0.5 nM, AMP 50 μM, 30 minutes at room temperature
Description: Inhibition of the CD73 Enzyme In Vitro
The concentration of inorganic phosphate was determined using a phosphate standard curve.

Sequence of recombinant CD73 (P21589 27-547): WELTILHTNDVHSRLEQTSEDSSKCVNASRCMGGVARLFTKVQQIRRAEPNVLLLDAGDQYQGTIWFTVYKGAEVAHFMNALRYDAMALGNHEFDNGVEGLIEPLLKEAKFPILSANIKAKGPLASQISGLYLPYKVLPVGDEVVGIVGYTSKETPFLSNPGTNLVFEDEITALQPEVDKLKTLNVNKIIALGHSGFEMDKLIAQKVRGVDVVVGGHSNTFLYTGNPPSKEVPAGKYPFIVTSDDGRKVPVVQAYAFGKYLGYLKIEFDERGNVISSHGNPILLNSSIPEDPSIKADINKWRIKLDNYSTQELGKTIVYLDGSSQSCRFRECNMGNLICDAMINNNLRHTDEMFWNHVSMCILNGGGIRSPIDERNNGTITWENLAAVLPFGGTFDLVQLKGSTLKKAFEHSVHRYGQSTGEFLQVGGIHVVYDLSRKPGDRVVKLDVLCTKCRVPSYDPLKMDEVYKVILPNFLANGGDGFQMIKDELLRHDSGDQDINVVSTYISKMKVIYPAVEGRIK

SMILES | pIC50
Nc1nc(Cl)nc2c1ncn2[C@@H]1O[C@H](COC(Cc2ccc(N3CCCCS3(=O)=O)cc2)(C(=O)O)C(=O)O)[C@@H](O)[C@@H]1F [Example 178] | 7.80
Nc1ncnc2c1ncn2[C@@H]1O[C@H](COC(Cc2ccccc2)(C(=O)O)C(=O)O)[C@@H](O)[C@H]1F | 4.66
CCOC(=O)c1ccccc1-c1ccc(CC(OC[C@H]2O[C@@H](n3cnc4c(N)nc(Cl)nc43)[C@@H](F)[C@@H]2O)(C(=O)O)C(=O)O)cc1 [Example 175] | 7.74
Nc1ncc(-c2ccc(CC(OC[C@H]3O[C@@H](n4cnc5c(N)nc(Cl)nc54)[C@@H](F)[C@@H]3O)(C(=O)O)C(=O)O)cc2)cn1 [Example 159] | 7.12
COc1ccccc1C(=O)Nc1ccc(CC(OC[C@H]2O[C@@H](n3cnc4c(N)nc(Cl)nc43)[C@@H](F)[C@@H]2O)(C(=O)O)C(=O)O)cc1 [Example 150] | 7.80
CS(=O)(=O)c1ccc(-c2ccc(CC(OC[C@H]3O[C@@H](n4cnc5c(N)nc(Cl)nc54)[C@@H](F)[C@@H]3O)(C(=O)O)C(=O)O)cc2)cc1 [Example 153] | 7.13
Nc1nc(Cl)nc2c1ncn2[C@@H]1O[C@H](COC(Cc2ccccc2)(C(=O)O)C(=O)O)[C@H](N)[C@H]1O [Example 166] | < 5.00
CCOC(=O)C(Cc1ccccc1)(OC[C@H]1O[C@@H](n2cnc3c(N)nc(Cl)nc32)[C@@H](F)[C@@H]1O)c1nn[nH]n1 (some centres unmarked) [Example 193] | < 4.30
Nc1nc(Cl)nc2c1ncn2[C@@H]1O[C@H](COC(Cc2ccc(-c3ccccn3)cc2)(C(=O)O)C(=O)O)[C@@H](O)[C@@H]1F [Example 176] | 7.25
C[C@H]1[C@@H](O)[C@H](n2cnc3c(N)nc(Cl)nc32)O[C@@H]1COC(Cc1ccccc1)(C(=O)O)C(=O)O [Example 167] | < 4.40
Nc1nc(Cl)nc2c1ccn2[C@@H]1O[C@H](COC(Cc2ccc(C(=O)O)cc2)(C(=O)O)C(=O)O)[C@@H](O)[C@@H]1F [Example 171] | 6.94
Nc1nc(Cl)nc2c1ncn2[C@@H]1O[C@H](COC(Cc2ccc(-c3ccncc3)cc2)(C(=O)O)C(=O)O)[C@@H](O)[C@@H]1F [Example 156] | 7.07
CCOC(=O)C(Cc1ccc(C(=O)OC)cc1)(OC[C@H]1O[C@@H](n2cnc3c(N)nc(Cl)nc32)[C@H](O)[C@@H]1O)c1nn[nH]n1 (some centres unmarked) [Example 195] | < 4.30
[N-]=[N+]=Nc1nc(N)c2ncn([C@@H]3O[C@H](COC(Cc4cccc(-c5nnn[nH]5)c4)(C(=O)O)C(=O)O)[C@@H](O)[C@@H]3F)c2n1 | 5.98
CCOC(=O)C(OC[C@H]1O[C@@H](n2cnc3c(N)nc(Cl)nc32)[C@H](O)[C@@H]1O)c1nnn[nH]1 (some centres unmarked) [Example 182] | < 4.30
Cc1n[nH]c(C)c1-c1ccc(CC(OC[C@H]2O[C@@H](n3cnc4c(N)nc(Cl)nc43)[C@@H](F)[C@@H]2O)(C(=O)O)C(=O)O)cc1 [Example 152] | 7.47
C[C@@]1(F)C[C@@H](COC(Cc2ccc(C(=O)O)cc2)(C(=O)O)C(=O)O)O[C@H]1n1cnc2c(N)nc(Cl)nc21 [Example 180] | < 4.00
Cc1noc(C)c1-c1ccc(CC(OC[C@H]2O[C@@H](n3cnc4c(N)nc(Cl)nc43)[C@@H](F)[C@@H]2O)(C(=O)O)C(=O)O)cc1 [Example 157] | 7.47

SMILES | pIC50
CC(C)(C)OC(=O)Nc1nc(Cl)nc2c1ncn2[C@@H]1O[C@H](COC(Cc2ccccc2)(C(=O)O)c2nnnn2C(C)(C)c2ccccc2)[C@@H](O)[C@@H]1F (some centres unmarked) [Example 188] | 4.94
Nc1nc(Cl)nc2c1ncn2[C@@H]1O[C@H](COC(Cc2ccc(-c3ccc(C(=O)O)cc3)cc2)(C(=O)O)C(=O)O)[C@@H](O)[C@@H]1F [Example 155] | 7.33
C=C1[C@@H](O)[C@H](n2cnc3c(N)nc(Cl)nc32)O[C@@H]1COC(Cc1ccccc1)(C(=O)O)C(=O)O [Example 154] | 5.74
Nc1nc(Cl)nc2c1ncn2[C@@H]1O[C@H](COC(Cc2ccc(N3CCCNC3=O)cc2)(C(=O)O)C(=O)O)[C@@H](O)[C@@H]1F [Example 179] | 8.05
C[C@@]1(O)[C@@H](COC(Cc2ccccc2)(C(=O)O)C(=O)O)O[C@@H](n2cnc3c(N)nc(Cl)nc32)[C@@H]1O [Example 149] | 7.29
CC(C)(C)OC(=O)Nc1nc(N=[N+]=[N-])nc2c1ncn2[C@@H]1O[C@H](COC(Cc2cccc(C#N)c2)(C(=O)O)C(=O)O)[C@@H](O)[C@@H]1F | 5.75
Nc1nc(Cl)nc2c1ncn2[C@@H]1O[C@H](COC(Cc2ccc(-c3ccccc3C(=O)O)cc2)(C(=O)O)C(=O)O)[C@@H](O)[C@@H]1F [Example 151] | 7.51
CCOC(=O)C(Cc1ccc(-c2ccccc2)cc1)(OC[C@H]1O[C@@H](n2cnc3c(N)nc(Cl)nc32)[C@@H](F)[C@@H]1O)C(=O)O (single isomer, unassigned) [84 Isomer 2] | 5.08
CCOC(=O)C(Cc1ccc(-c2ccccc2)cc1)(OC[C@H]1O[C@@H](n2cnc3c(N)nc(Cl)nc32)[C@@H](F)[C@@H]1O)C(=O)O (single isomer, unassigned) [84 Isomer 1] | 5.14
Nc1nc(Cl)nc2c1ncn2[C@@H]1O[C@H](COC(Cc2ccc(-c3cccc(F)c3O)cc2)(C(=O)O)C(=O)O)[C@@H](O)[C@@H]1F [Example 181] | 8.05
Nc1nc(Cl)nc2c1ncn2[C@@H]1O[C@H](COC(Cc2ccc(N3CCCC3=O)cc2)(C(=O)O)C(=O)O)[C@@H](O)[C@@H]1F [Example 162] | 7.27
Nc1nc(Cl)nc2c1ccn2[C@@H]1O[C@H](COC(Cc2ccccc2)(C(=O)O)C(=O)O)[C@@H](O)[C@@H]1F [Example 169] | 6.92
C[C@@H]1[C@@H](O)[C@H](n2cnc3c(N)nc(Cl)nc32)O[C@@H]1COC(Cc1ccccc1)(C(=O)O)C(=O)O [Example 168] | 5.76
CC(C)(C)n1nnc(C(Cc2ccccc2)(OC[C@H]2O[C@@H](n3cnc4c(N)nc(Cl)nc43)[C@H](O)[C@H]2O)C(=O)O)n1 (some centres unmarked) [Example 204] | 5.11
Nc1nc(Cl)nc2c1ncn2[C@@H]1O[C@H](COC(Cc2ccc(-c3ccccc3O)cc2)(C(=O)O)C(=O)O)[C@@H](O)[C@@H]1F [Example 160] | 7.92
C[C@@]1(O)[C@H](O)[C@@H](COC(Cc2ccccc2)(C(=O)O)c2nn[nH]n2)O[C@H]1n1cnc2c(N)nc(Cl)nc21 (some centres unmarked) [Example 202] | < 4.30
Nc1nc(Cl)nc2c1ncn2[C@@H]1O[C@H](COC(C(=O)O)C(=O)O)[C@@H](O)[C@@H]1F [Example 5] | 4.88
Cc1[nH]ncc1-c1ccc(CC(OC[C@H]2O[C@@H](n3cnc4c(N)nc(Cl)nc43)[C@@H](F)[C@@H]2O)(C(=O)O)C(=O)O)cc1 [Example 177] | 7.32

Further lines, results first:

pIC50 | SMILES
6.92 | Nc1nc(Cl)nc2c1ncn2[C@@H]1O[C@H](COC(Cc2cccc(C(=O)O)c2)(C(=O)O)C(=O)O)[C@@H](O)[C@@H]1F
5.05 | Nc1nc(Cl)nc2c1ncn2[C@@H]1O[C@H](COC(Cc2ccccc2)(C(=O)O)C(=O)O)[C@@H](F)[C@H]1O [Example 165]
6.56 | Nc1nc(Cl)nc2c1ncn2[C@@H]1O[C@H](COC(Cc2cccc(F)c2)(C(=O)O)C(=O)O)[C@@H](O)[C@@H]1F
6.80 | Nc1nc(Cl)nc2c1ncn2[C@@H]1O[C@H](COC(Cc2ccc(CO)cc2)(C(=O)O)C(=O)O)[C@@H](O)[C@@H]1F
6.96 | Nc1nc(Cl)nc2c1ncn2[C@@H]1O[C@H](COC(Cc2ccc(C(F)(F)F)cc2)(C(=O)O)C(=O)O)[C@@H](O)[C@@H]1F [Example 20, 2-(((2R,3R,4S,5R)-5-(6-amino-2-chloro-9H-purin-9-yl)-4-fluoro-3-hydroxytetrahydrofuran-2-yl)methoxy)-2-(4-(trifluoromethyl)benzyl) malonic acid]
6.27 | N#Cc1cccc(CC(OC[C@H]2O[C@@H](n3cnc4c(N)nc(Cl)nc43)[C@@H](F)[C@@H]2O)(C(=O)O)C(=O)O)c1
6.28 | CN(C)C(=O)c1cccc(CC(OC[C@H]2O[C@@H](n3cnc4c(N)nc(Cl)nc43)[C@@H](F)[C@@H]2O)(C(=O)O)C(=O)O)c1
6.89 | Nc1nc(Cl)nc2c1ncn2[C@@H]1O[C@H](COC(Cc2ccccc2)(C(=O)O)C(=O)O)[C@@H](O)[C@@H]1F [Example 6, 2-(((2R,3R,4S,5R)-5-(6-amino-2-chloro-9H-purin-9-yl)-4-fluoro-3-hydroxytetrahydro-furan-2-yl)methoxy)-2-benzylmalonic acid]
6.69 | Nc1nc(Cl)nc2c1ncn2[C@@H]1O[C@H](COC(Cc2ccsc2)(C(=O)O)C(=O)O)[C@@H](O)[C@@H]1F
7.01 | N#Cc1ccc(CC(OC[C@H]2O[C@@H](n3cnc4c(N)nc(Cl)nc43)[C@@H](F)[C@@H]2O)(C(=O)O)C(=O)O)cc1
7.24 | Nc1nc(Cl)nc2c1ncn2[C@@H]1O[C@H](COC(Cc2ccc(OC(F)(F)F)cc2)(C(=O)O)C(=O)O)[C@@H](O)[C@@H]1F
6.08 | COc1cccc(CC(OC[C@H]2O[C@@H](n3cnc4c(N)nc(Cl)nc43)[C@@H](F)[C@@H]2O)(C(=O)O)C(=O)O)c1
6.46 | Nc1nc(Cl)nc2c1ncn2[C@@H]1O[C@H](COC(Cc2ccc(F)cc2)(C(=O)O)C(=O)O)[C@@H](O)[C@@H]1F
6.66 | Nc1cccc(CC(OC[C@H]2O[C@@H](n3cnc4c(N)nc(Cl)nc43)[C@@H](F)[C@@H]2O)(C(=O)O)C(=O)O)c1
6.98 | Nc1nc(Cl)nc2c1ncn2[C@@H]1O[C@H](COC(Cc2ccc(-c3cccs3)cc2)(C(=O)O)C(=O)O)[C@@H](O)[C@@H]1F [Example 158]
6.51 | Nc1nc(Cl)nc2c1ncn2[C@@H]1O[C@H](COC(Cc2cccc(OC(F)(F)F)c2)(C(=O)O)C(=O)O)[C@@H](O)[C@@H]1F [Example 15, 2-(((2R,3R,4S,5R)-5-(6-amino-2-chloro-9H-purin-9-yl)-4-fluoro-3-hydroxytetrahydrofuran-2-yl)methoxy)-2-(3-(trifluoromethoxy)benzyl) malonic acid]
6.44 | Nc1nc(Cl)nc2c1ncn2[C@@H]1O[C@H](COC(Cc2ccc(Cl)nc2)(C(=O)O)C(=O)O)[C@@H](O)[C@@H]1F [Example 8, 2-(((2R,3R,4S,5R)-5-(6-amino-2-chloro-9H-purin-9-yl)-4-fluoro-3-hydroxytetrahydro-furan-2-yl)methoxy)-2-((6-chloropyridin-3-yl)methyl)malonic acid]
